Activity calls are given as the source filed them. The calls are words filed in the database; no cut-off is given here.
Tests used:
[1] = Toxicity in C57BL/6 male mouse assessed as effect on animal behavior administered in diet measured after prolonged compound treatment; conditions: in vivo, po
Mus musculus [2] = test: In vivo inhibition of fertility in C57BL/6 male mouse administered in diet after 7 to 9 days; type: functional, organism-based
[3] = Toxicity in C57BL/6 female mouse assessed as effect on serum biochemistry administered in diet measured after prolonged compound treatment; conditions: in vivo, po
Mus musculus [4] = test: In vivo inhibition of fertility in C57BL/6 female mouse administered in diet treated for 5 weeks followed by breeding of female mouse with nontreated age-matched male mouse for 4 days; type: functional, organism-based
[5] = target: T1, Cation channel sperm-associated protein 1 (Mus musculus) (UniProt Q91ZR5); test: Inhibition of wild type CatSper1 channel in mouse corpus epididymal sperm cells assessed decrease in Ca2+ current by whole cell patch clamp assay
T1 sequence (whole entry): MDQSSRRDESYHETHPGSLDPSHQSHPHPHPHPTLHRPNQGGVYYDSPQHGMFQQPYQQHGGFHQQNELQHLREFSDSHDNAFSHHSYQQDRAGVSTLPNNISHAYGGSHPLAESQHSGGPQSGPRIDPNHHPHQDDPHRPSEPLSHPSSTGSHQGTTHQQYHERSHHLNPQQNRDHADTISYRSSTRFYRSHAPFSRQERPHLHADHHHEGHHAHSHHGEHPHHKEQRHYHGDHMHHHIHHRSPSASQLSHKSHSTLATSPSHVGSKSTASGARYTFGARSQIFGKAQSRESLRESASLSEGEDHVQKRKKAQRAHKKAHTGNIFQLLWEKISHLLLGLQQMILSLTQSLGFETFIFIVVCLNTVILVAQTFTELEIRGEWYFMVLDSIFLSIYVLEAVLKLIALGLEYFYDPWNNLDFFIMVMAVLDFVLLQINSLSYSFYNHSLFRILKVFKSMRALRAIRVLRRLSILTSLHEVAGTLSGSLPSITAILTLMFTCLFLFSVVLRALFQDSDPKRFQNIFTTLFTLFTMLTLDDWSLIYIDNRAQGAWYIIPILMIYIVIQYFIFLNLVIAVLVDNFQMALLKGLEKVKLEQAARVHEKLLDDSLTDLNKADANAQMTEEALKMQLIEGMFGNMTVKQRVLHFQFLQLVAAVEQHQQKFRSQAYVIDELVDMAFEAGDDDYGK

Mus musculus [6] = test: Reversible inhibition of fertility in C57BL/6 male mouse administered in diet for 2 months; type: functional; conditions: TDE = time-dependent effect
[7] = Toxicity in C57BL/6 female mouse assessed as effect on animal behavior administered in diet measured after prolonged compound treatment; conditions: in vivo, po
[8] = target: T1, Cation channel sperm-associated protein 1 (Mus musculus); test: Inhibition of CatSper1 channel […] in 129/SvJ x C57BL/6J mouse cauda epididymal sperm assessed as reduction in sperm hyperactivity after 5 mins by single sperm motility assay
[9] = Toxicity in C57BL/6 female mouse assessed as effect on reproductive hormone levels administered in diet measured after prolonged compound treatment; conditions: in vivo, po
[10] = Toxicity in C57BL/6 male mouse assessed as effect on serum biochemistry administered in diet measured after prolonged compound treatment; conditions: in vivo, po
Mus musculus [11] = test: Reversible inhibition of fertility in C57BL/6 female mouse administered in diet for 2 months; type: functional; conditions: TDE = time-dependent effect
[12] = Toxicity in C57BL/6 male mouse assessed as effect on reproductive hormone levels administered in diet measured after prolonged compound treatment; conditions: in vivo, po
[13] = target: T2, Cation channel sperm-associated protein 1 (Homo sapiens) (UniProt Q8NEC5); test: Inhibition of CatSper1 channel in human sperm assessed as decrease in sperm hyperactivity after 5 mins by computer-assisted sperm analysis
T2 sequence (whole entry): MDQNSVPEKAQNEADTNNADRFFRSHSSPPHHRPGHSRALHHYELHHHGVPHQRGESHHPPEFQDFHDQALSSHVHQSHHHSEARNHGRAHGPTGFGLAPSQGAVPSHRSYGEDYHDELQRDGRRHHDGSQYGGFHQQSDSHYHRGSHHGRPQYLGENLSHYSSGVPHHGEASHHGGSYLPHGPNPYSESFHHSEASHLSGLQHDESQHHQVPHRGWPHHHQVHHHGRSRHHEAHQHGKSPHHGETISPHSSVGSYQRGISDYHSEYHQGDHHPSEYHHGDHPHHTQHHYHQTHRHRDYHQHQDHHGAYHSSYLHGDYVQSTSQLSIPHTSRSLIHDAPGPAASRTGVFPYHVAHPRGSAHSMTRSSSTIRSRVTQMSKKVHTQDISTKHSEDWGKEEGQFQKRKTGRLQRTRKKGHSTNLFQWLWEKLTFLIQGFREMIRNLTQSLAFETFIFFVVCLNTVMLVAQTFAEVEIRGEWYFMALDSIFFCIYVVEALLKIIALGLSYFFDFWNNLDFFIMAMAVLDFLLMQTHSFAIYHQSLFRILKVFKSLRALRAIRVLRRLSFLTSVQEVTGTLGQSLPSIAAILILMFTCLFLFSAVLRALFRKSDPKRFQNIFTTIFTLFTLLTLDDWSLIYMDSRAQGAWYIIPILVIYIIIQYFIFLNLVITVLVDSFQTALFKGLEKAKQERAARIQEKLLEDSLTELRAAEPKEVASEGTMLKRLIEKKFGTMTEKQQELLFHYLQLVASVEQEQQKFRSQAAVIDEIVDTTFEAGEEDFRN

[14] = target: T2, Cation channel sperm-associated protein 1 (Homo sapiens); test: Inhibition of CatSper1 channel in human sperm assessed as sperm hyperactivity at 50 uM after 5 mins by computer-assisted sperm analysis (reference value: 10.5%); design: scale not given: the % may be the effect or the level left
[15] = target: T2, Cation channel sperm-associated protein 1 (Homo sapiens); test: Inhibition of CatSper1 channel in human sperm assessed as sperm hyperactivity at 1 uM after 5 mins by computer-assisted sperm analysis (reference value: 10.5%); design: scale not given: the % may be the effect or the level left
[16] = target: T2, Cation channel sperm-associated protein 1 (Homo sapiens); test: Inhibition of CatSper1 channel in human sperm assessed as sperm motility at 50 uM after 5 mins by computer-assisted sperm analysis (reference value: 68%); design: scale not given: the % may be the effect or the level left
[17] = target: T2, Cation channel sperm-associated protein 1 (Homo sapiens); test: Inhibition of CatSper1 channel in human sperm assessed as sperm motility at 1 uM after 5 mins by computer-assisted sperm analysis (reference value: 68%); design: scale not given: the % may be the effect or the level left
[18] = target: T1, Cation channel sperm-associated protein 1 (Mus musculus); test: Inhibition of CatSper1 currents in mouse spermatozoa isolated from corpus epididymis at 20 uM by whole cell patch clamp assay

SMILES	Activity [1]	inhibition (Mus musculus [2])	Activity [3]	inhibition (Mus musculus [4])	inhibition [5]	inhibition (Mus musculus [6])	Activity [7]	inhibition [8]	Activity [9]	Activity [10]	inhibition (Mus musculus [11])	Activity [12]	inhibition [13]	Activity [14] [%]	Activity [15] [%]	Activity [16] [%]	Activity [17] [%]	inhibition [18]
O=C(c1ccccc1)c1no[n+]([O-])c1C(=O)c1ccccc1	Non-Toxic	Dose-dependent effect	Non-Toxic	Active	Active	Tde	Non-Toxic	Dose-dependent effect	Non-Toxic	Non-Toxic	Tde	Non-Toxic						
Cc1conc1C(=O)c1no[n+]([O-])c1C(=O)c1nocc1C	Non-Toxic	Dose-dependent effect	Non-Toxic	Active	Active	Tde	Non-Toxic	Dose-dependent effect	Non-Toxic	Non-Toxic	Tde	Non-Toxic	Active					
CC(C)(C)C(=O)c1no[n+]([O-])c1C(=O)C(C)(C)C	Non-Toxic	Dose-dependent effect	Non-Toxic	Active	Active	Tde	Non-Toxic	Dose-dependent effect	Non-Toxic	Non-Toxic	Tde	Non-Toxic	Active					
O=C(c1ccc(Cl)c(Cl)c1)c1no[n+]([O-])c1C(=O)c1ccc(Cl)c(Cl)c1	Non-Toxic	Dose-dependent effect	Non-Toxic	Active	Active	Tde	Non-Toxic	Dose-dependent effect	Non-Toxic	Non-Toxic	Tde	Non-Toxic	Active					
O=C(c1cccs1)c1no[n+]([O-])c1C(=O)c1cccs1	Non-Toxic	Dose-dependent effect	Non-Toxic	Active	Active	Tde	Non-Toxic	Dose-dependent effect	Non-Toxic	Non-Toxic	Tde	Non-Toxic		1.6	6.2	70	59	Active

From ChEMBL document CHEMBL3880419, “Modulators of sperm hypermobility and uses thereof” (2013)
